Reference: patent US20110224079A1, “SPIROHETEROCYCLIC N-OXYAMIDES AS PESTICIDES” (SYNGENTA CROP PROTECTION LLC, priority 2008, published 2011)

Legend:
[1] = test system: Aphis Craccivora (cowpea aphid); assay: Example B10: activity against Aphis craccivora, pea seedling roots in test solution (systemic/feeding); type: in vivo; details: 144 h, roots of infested pea seedlings in test solution, 6 days
Description: (§1) Activity Against Aphis Craccivora (Cowpea Aphid)
(Mixed Population, Systemic/Feeding)

[2] = test system: Plutella xylostella (diamond back moth); assay: Example B5: activity against Plutella xylostella, artificial diet in microtiter plate (larvicide, preventive); type: in vivo; details: 120 h, L2 larvae, 5 days, read-out: activity (larval mortality, antifeedant, growth regulation)
Method: Activity Against Plutella xylostella (Diamond Back Moth)
(Larvicide, Feeding/Residual Contact Activity, Preventive)
24-well microtiter plate (MTP) with artificial diet is treated with test solutions by pipetting. After drying, the MTP's are infested with larvae (L2)(10-15 per well). After an incubation period of 5 days, samples are checked for larval mortality, antifeedant and growth regulation.

[3] = test system: Nilaparvata lugens (brown rice planthopper); assay: Example B8: activity against Nilaparvata lugens, sprayed rice seedlings (larvicide, feeding/contact); details: in Oryza sativa, read-out: activity (mortality, growth regulation, effects on F1 generation)
[4] = test system: Aonidiella Aurantii (red scale); assay: Example B12: activity against Aonidiella aurantii, dipped potato tubers; type: in vivo; details: 6-8 weeks after application, read-out: activity (number of crawlers of the next generation)
Description: Activity Against Aonidiella Aurantii (Red Scale)
Treatment of potato tubers by dipping the in the test solution. One day later, tubers are infested with about 50 crawlers. 6-8 weeks after application samples are checked for the number of crawlers of the next generation (compared to the non treated samples).

[5] = test system: Myzus persicae (green peach aphid); assay: Example B13: drench activity against Myzus persicae, pea seedlings in field soil; details: 168 h, read-out: drench activity (mortality)
[6] = test system: Bemisia tabaci (tobacco white fly); assay: Example B7: activity against Bemisia tabaci, sprayed bean plants (larvicide, contact/feeding); type: in vivo; details: 504 h, bean plants with N-2 nymphs sprayed, three weeks, read-out: activity (efficacy, number of emerged adults)
Procedure, shortened: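 After a 4-day egg-laying period and 7 further days, bean plants bearing hatched N-2 nymphs were sprayed with test solutions (2 replicates). Emerged adults were counted three weeks later; efficacy was derived by comparison with untreated samples.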

[7] = test system: Myzus persicae (green peach aphid); assay: Example B2: activity against Myzus persicae, pea seedling roots in test solution (systemic/feeding, curative); details: 144 h, read-out: activity (mortality)
[8] = test system: Tetranychus urticae (two-spotted spider mite); assay: Example B4: activity against Tetranychus urticae, sprayed bean leaf discs (feeding/residual contact, preventive); details: foliar, 192 h, read-out: activity (egg, larval and adult mortality)
[9] = test system: Myzus persicae (green peach aphid); assay: Example B17: activity against Myzus persicae on sprayed pepper plants (feeding/residual contact); type: in vivo; details: 144 h, infested pepper plants sprayed, 6 days
[10] = test system: Thrips tabaci (onion thrips); assay: Example B3: activity against Thrips tabaci, sprayed sunflower leaf discs (feeding/residual contact, preventive); type: in vivo; details: foliar, 144 h, mixed population, 6 days
Description: Activity Against Thrips tabaci (Onion Thrips)
(Mixed Population, Feeding/Residual Contact Activity, Preventive)

[11] = test system: Myzus persicae (green peach aphid); assay: Example B1: activity against Myzus persicae, sprayed sunflower leaf discs (feeding/residual contact, preventive); details: foliar, 144 h, read-out: activity (mortality)
pepper plants = details: in vivo
Method: (§2) Comparison of the Insecticidal Activity and Crop Compatibility of Compounds According to the Invention with a Compound from the State of the Art (Compound No. A18 Described on Page 97 of WO09/049,851)
(§3) (Mixed Population, Drench Application in Field Soil, Persistence, Plant Damage Evaluation)
(§4) Samples are assessed 7 days after infestation on mortality. Treated plants are re-infested 7, 14, 21 and 28 days after application. Evaluation is always done 7 days after infestation. Plants are also checked for damage (phytotoxicity), visual assessment being made using a 0-100% rating scale (100%=total damage to plant; 0%=no damage to plant).

[12] = test system: Myzus persicae (green peach aphid); assay: Example B15: drench activity (death rate, persistence) against Myzus persicae on pepper plants in field soil, comparison with A18; type: in vivo; details: for Mortality (%) xx days after application (drench, systemic action, persistence): 12.5 ppm drench, pepper plants in field soil, evaluation 7 days after infestation; for insecticidal action on Myzus persicae compared with state-of-the-art compound A18 (in words): drench application on pepper plants, summary of Table B15
Method: as §2, §3, §4

[13] = test system: Aphis Craccivora (cowpea aphid); assay: Example B11: translaminar activity against Aphis craccivora on French bean leaves; type: in vivo; details: 120 h, upper leaf side painted, aphids on lower side, 5 days
Method: Translaminar Activity Against Aphis Craccivora (Cowpea Aphid)
French bean leaves (Phaseolus vulgaris) are infested with about 20 mixed age individuals on the lower leaf side using clip cages. 1 day after the infestation, the upper side of the leaves is treated with the test solution by painting. 5 days later, samples are checked for mortality.

[14] = test system: Aphis Craccivora (cowpea aphid); assay: Example B9: activity against Aphis craccivora, sprayed pea seedlings (contact/feeding); type: in vivo; details: 144 h, infested pea seedlings sprayed, 6 days
Description: as §1
(Mixed Population, Contact/Feeding)
6 days after treatment, samples are checked for mortality.

[15] = test system: Frankliniella occidentalis (western flower thrips); assay: Example B6: activity against Frankliniella occidentalis, bean leaf discs or bean plants; type: in vivo; details: foliar, 6 days (leaf discs) or 14 days (plants) after infestation, read-out: activity (reduction of treated population)
Procedure, shortened: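 Bean leaf discs on agar or whole bean plants sprayed with diluted test solutions, then infested with a mixed thrips population after drying. Population reduction versus untreated assessed 6 days (discs) or 14 days (plants) after infestation.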

[16] = infestation 0 days after application
[17] = re-infestation 7 days after application
[18] = re-infestation 14 days after application
[19] = re-infestation 21 days after application
[20] = re-infestation 28 days after application

| Structure (SMILES) | mortality at 400 ppm [1] [%] | mortality at 400 ppm [2] [%] | mortality at 400 ppm [3] [%] | pest or weed control at 200 ppm [4] [%] | mortality at 25 ppm [5] [%] | pest or weed control at 200 ppm [6] [%] | mortality at 400 ppm [7] [%] | mortality at 200 ppm [9] [%] | mortality at 400 ppm [10] [%] | mortality at 400 ppm [11] [%] | plant damage on pepper plants / plant compatibility (in words) (pepper plants) | Mortality (%) xx days after application (drench, systemic action, persistence) [12, 16] [%] | Mortality (%) xx days after application (drench, systemic action, persistence) [12, 17] [%] | Mortality (%) xx days after application (drench, systemic action, persistence) [12, 18] [%] | Mortality (%) xx days after application (drench, systemic action, persistence) [12, 19] [%] | Mortality (%) xx days after application (drench, systemic action, persistence) [12, 20] [%] | insecticidal action on Myzus persicae compared with state-of-the-art compound A18 (in words) [12] | mortality at 400 ppm [13] [%] | further results |
| --- | --- | --- | --- | --- | --- | --- | --- | --- | --- | --- | --- | --- | --- | --- | --- | --- | --- | --- | --- |
| CCOC(=O)OC1=C(c2c(C)cc(C)cc2C)C(=O)N(O)C12CCN(OC)CC2 [P1.11, carbonic acid ethyl ester 1-hydroxy-8-methoxy-2-oxo-3-(2,4,6-trimethyl-phenyl)-1,8-diaza-spiro[4.5]dec-3-en-4-yl ester] | > 80 | > 80 | > 80 | > 80 | > 80 | > 80 | > 80 | ≥ 80 | > 80 | > 80 | no plant damage at all | 97 | 95 | 95 | 100 | 100 | very similar to the action of the compound of the state of the art |  | mortality at 400 ppm [8]: > 80% |
| CCOC(=O)OC1=C(c2c(C)cc(C)cc2C)C(=O)NC12CCN(OC)CC2 [A18, reference compound] |  |  |  |  |  |  |  |  |  |  | damages these to an untolerable high extend | 100 | 100 | 98 | 95 | 95 |  |  |  |
| CCOC(=O)OC1=C(c2c(C)cc(C)cc2C)C(=O)N(OCOC)C12CCN(OC)CC2 [P1.7, carbonic acid ethyl ester 8-methoxy-1-methoxymethoxy-2-oxo-3-(2,4,6-trimethyl-phenyl)-1,8-diaza-spiro[4.5]dec-3-en-4-yl ester] |  | > 80 | > 80 | > 80 | > 80 | > 80 | > 80 | ≥ 80 |  | > 80 | no plant damage at all | 99 | 100 | 98 | 98 | 97 | very similar to the action of the compound of the state of the art | > 80 |  |
| COCON1C(=O)C(c2c(C)cc(C)cc2C)=C(O)C12CCN(OC)CC2 [P2.6, 4-hydroxy-8-methoxy-1-methoxymethoxy-3-(2,4,6-trimethyl-phenyl)-1,8-diaza-spiro[4.5]dec-3-en-2-one] | > 80 | > 80 | > 80 | > 80 | > 80 | > 80 | > 80 | ≥ 80 | > 80 | > 80 |  |  |  |  |  |  |  | > 80 | mortality at 400 ppm [14]: > 80%; pest or weed control at 400 ppm [15]: > 80% |
